Assay: gradient 5% acetonitrile 3 min, to 50% in 2 min, to 85% in 15 min, held 3 min, 100 µL/min
Conditions: column: Zorbax Extend-C18 2.1 x 50 mm; eluents: water / acetonitrile, 0.1% formic acid
Outline: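 The mobile phases were water and acetonitrile, each with 0.1% formic acid, pumped at 100 μL/min through a Zorbax Extend-C18 column (2.1 × 50 mm, 1.8 μm). Pure standards were injected as mixtures of ~100 molecules and detected by a quadrupole time-of-flight mass spectrometer in positive and negative ionization mode. Retention time came from computationally picked adduct peaks, each inspected by hand.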

SMILES | RP-LC retention time
CC1CC=C(O)C12OCC(C)(C)CO2 (configuration not stated) | 736 s
O=C([C@@H]1C[C@H](Oc2ccccc2)CN1C(=O)c1cccs1)N1CCCC1 | 767 s
CNc1nc(Nc2ccccc2)nc2ccccc12 | 633 s
Cc1nnc(SCC2=C(C(=O)O)N3C(=O)C(NC(=O)Cn4cnnn4)C3SC2)s1 (configuration not stated) | 641 s
CC(=O)Nc1cc(C(=O)NCC(C)C)c2ccc(C)nc2c1 | 574 s
CCCn1cc(CCNS(=O)(=O)c2cccc(OC)c2)c2cccnc21 | 837 s
O=c1nccc(SCc2ccc(Cl)cc2Cl)[nH]1 | 842 s
CC[C@@H](CO)NC(=O)[C@@H]1C=C2c3cccc4[nH]cc(c34)C[C@H]2N(C)C1 | 616 s
Cc1ccc(-c2noc(-c3sccc3NC(=O)C3(c4ccccc4)CC3)n2)cc1 | 828 s
Cc1cc(N2CCCC2)nc(N2CCN(C(=O)c3ccc(-c4ccccc4)cc3)CC2)n1 | 813 s
CCOc1ccccc1NC(=O)Nc1ccc(CC(=O)NCC(F)(F)F)cc1 | 815 s
CSc1cccc(NC(=O)NCC(c2cccnc2)c2cn(C)c3ccccc23)c1 (configuration not stated) | 733 s
CCCCN1C(=O)C(C)(C(=O)NCCOC)Oc2cccnc21 (configuration not stated) | 781 s
CN1C(=O)C2CCCCN2c2ccc(C(=O)NCCCN(C)C3CCCCC3)cc21 (configuration not stated) | 655 s
Cc1ccc(NC(=O)Cc2c(C(=O)O)c(C)cn2C)c(C)c1 | 771 s
CCCCCCN1CCN(c2cccc(Cl)c2)CC1 | 737 s
COc1ccc2c(c1)C1(CCN(S(=O)(=O)c3cccc(C)c3)C1)C(=O)N2 (configuration not stated) | 840 s
CC(C)OCCCNC(=O)CCc1c(-c2ccc(Br)cc2)nc2ccccn12 | 652 s

SMILES | RP-LC retention time
CCOc1ccc(Cc2nc(-c3ccc4c(c3)N(CC)C(=O)CO4)no2)cc1OCC | 1070 s
Cc1c(Cl)cccc1S(=O)(=O)Nc1ccc(Cn2cncn2)cc1 | 775 s
O=C(NC1CCN(Cc2ccccc2)CC1)C1CCN(c2ncnc3c2oc2ccccc23)CC1 | 603 s
Cc1noc([C@@H]2CC(F)(F)CN2C(=O)c2ccoc2C)n1 | 756 s
CCC1CCCCN1CCCNC(=O)CCCn1c(=O)c2cccn2c2ccccc21 (configuration not stated) | 641 s
Cc1ccc(NS(=O)(=O)c2ccc(-c3nnc(C4CCC4)o3)o2)cc1F | 962 s
NC(=O)c1ccc(-n2cccc2)nc1 | 650 s
Cc1ccc(CN(Cc2cc(=O)n3cc(Cl)ccc3n2)CC(C)C)cc1 | 624 s
CCn1c(C)c(C(=O)C(C)N(CCC(C)C)C(=O)c2ccccc2Cl)c(C)c1C(=O)OC (configuration not stated) | 1210 s
CCc1ccc(S(=O)(=O)N2CC(COC)C3(CCNCC3)C2)cc1 (configuration not stated) | 630 s
Cc1ccc2[nH]cc(CCNC(=O)C(C)n3c4ccccc4c4cnn(C)c(=O)c43)c2c1 (configuration not stated) | 906 s
CSc1nnc(-c2nn(C)c3c2CN(C(=O)c2ccc(C)cc2)CC3)n1C | 716 s
CC(C)c1ccc(NC(=O)Cn2cnc3c(sc4nc(-c5ccccc5)ccc43)c2=O)cc1 | 1180 s
Cc1ccc(N2CCN(Cc3nc(-c4ccc(N5CCSCC5)nc4)no3)CC2)cc1 | 959 s
CCc1nn(CC)c(=O)c2cc(S(=O)(=O)NC(C)c3ccccc3)cn12 (configuration not stated) | 964 s
O=C(CN1CCN(c2ccccn2)CC1)N1N=CCC1c1ccccc1 (configuration not stated) | 573 s
CC(C)c1noc(-c2cc(=O)n(CC(=O)NCc3cccs3)c3ccccc23)n1 | 933 s
Cc1ccc(NC(=O)c2cc(C(C)C)n(C3CCS(=O)(=O)C3)n2)cc1 (configuration not stated) | 901 s

Now from value to compound:

RP-LC retention time | SMILES
912 s | COc1ccc(Cl)cc1S(=O)(=O)NCc1c(-c2ccccc2)nc2sc(C)nn12
786 s | CCCn1ccc2oc(C)c(C(=O)NCc3ccc(C(C)C)cc3)c2c1=O
825 s | O=C(Cc1c[nH]c2ccccc12)N1CCc2cc(-c3ccno3)ccc21
1020 s | Cc1ccc(N2C(=O)N3CCc4c([nH]c5ccccc45)C3(C)C2=O)cc1 (configuration not stated)
598 s | CCN1CCN(c2cc(C)c3cc(NC(=S)NCc4cc(OC)ccc4OC)ccc3n2)CC1
699 s | COc1ccc(C2Cn3nnc(C(=O)N4CCC(C(=O)NC5CC5)CC4)c3CO2)cc1 (configuration not stated)
895 s | COc1ccc(CCc2nc3nccc(-c4cc(OC)c(OC)c(OC)c4)n3n2)cc1
1000 s | COC(=O)c1ccc(NC(=O)C2CCCN(S(=O)(=O)c3ccc(OC)c(C)c3)C2)cc1 (configuration not stated)
671 s | CCn1ccc2cc(S(=O)(=O)N3CCC(C(=O)N4CCN(c5ccccc5)CC4)CC3)ccc21
658 s | COCCNC(=O)C1CCN(C(=O)c2ncn3c2COC(c2ccc(OC)cc2)C3)CC1 (configuration not stated)
700 s | COc1cccc(CNC(=O)C2CCN(Cc3cn(C)c4ccc(Cl)cc34)CC2)c1
898 s | COC(=O)c1ccc(NC(=O)N2CCCC2c2cccc(F)c2)cc1 (configuration not stated)
937 s | CCc1ccc(CNC(=O)C2CCCN(c3ccc(=O)n(-c4cccc(F)c4)n3)C2)cc1 (configuration not stated)
920 s | CC(C)CNC(=O)CN1c2ccc(F)cc2-c2ccccc2S1(=O)=O
687 s | COc1ccc(NC(=O)Nc2cccc(-c3cn4cccnc4n3)c2)cc1
714 s | CC(Cc1ccco1)NC(=O)C1CC(=O)N(c2ccc(F)cc2)C1 (configuration not stated)

RP-LC retention time | SMILES
763 s | O=C(NCc1cc(F)cc(F)c1)c1cn(-c2ccc(NC(=O)C3CC3)cn2)cn1
833 s | COCCn1cc2c3c(cccc31)CN(C(=O)Nc1ccc(OC)cc1)CC2
650 s | Cc1noc(CNC(=O)C2CCN(C(=O)c3csc(-c4ccccc4)n3)CC2)n1
718 s | Cc1cc(=O)n(CC(=O)Nc2ccccc2Cl)c(N2CCCCC2)n1
646 s | COc1ccc(-c2nc3cc(C)ccn3c2Nc2ccc3c(c2)OCO3)cc1
662 s | COC(=O)Nc1ccc(CC(=O)NCc2cccs2)cc1
1090 s | O=C(C1CCCCN1S(=O)(=O)c1ccc(F)cc1)N1CCc2ccccc21 (configuration not stated)
967 s | COc1ccc(-c2nccc(C3CCCN(C(=O)c4ccccc4)C3)n2)cc1 (configuration not stated)
987 s | O=C(COc1ccc(Cl)cc1Cl)Nc1ccc2c(c1)N(C(=O)C1CC1)CC2
733 s | Cn1ccc2c(cc(C(=O)NCc3cccc(Br)c3)n2C)c1=O
641 s | COc1ccc(OC)c(CN2C(=O)c3ccccc3C2C(=O)NCC2CCCO2)c1 (configuration not stated)
634 s | Cc1ccccc1-c1ccc(N2CCC(C(=O)Nc3ccc4c(c3)OCCO4)CC2)nn1
664 s | COc1ccc(CNC(=O)C2CC(=O)N(c3ccc4c(c3)CCN4C(C)=O)C2)cc1 (configuration not stated)
786 s | CC(=O)N1CCc2cc(N3CC(C(=O)Nc4ccc(C)cc4C)CC3=O)ccc21 (configuration not stated)
629 s | CCOC(=O)CCNC(=O)NCC1CC(=O)N(c2ccc(F)cc2)C1 (configuration not stated)

From the METLIN SMRT retention time set (Domingo-Almenara et al. 2019)
